In experiment [1] the target is HCV NS3 protease domain genotype 1b (Hepatitis C virus genotype 1b (isolate Con1), UniProt Q9WMX2, E1202G). Description: Ki determination, NS3 protease genotype 1b (fluorogenic depsipeptide substrate). The experiment is classed as biochemical. The conditions noted are these: 50 pM enzyme, NS4A peptide.
Experiment [2] has as its target HCV NS3 protease domain genotype 3a (Hepatitis C virus genotype 3a, UniProt Q81258). In words: Ki determination, NS3 protease genotype 3a (fluorogenic depsipeptide substrate). The conditions noted are these: 200 pM enzyme, NS4A peptide. Type of experiment: biochemical. The method, boiled down:
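The NS3 protease domain (aa 1-181) with 20 μM NS4A peptide was used at 50 pM with 4 μM substrate (1b) or at 200 pM with 2 μM substrate (3a). Inhibitors (100 nM-5 pM) were pre-incubated 1 h at room temperature in HEPES/glycerol/DTT buffer with 10% DMSO. Steady-state rates (90-120 min) gave Ki via the Morrison equation, corrected for active enzyme and [S]/Km.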

Experiment [3] deals with genotype 1a (H77) stable HCV replicon in Huh-7-derived cells. In words: Stable subgenomic HCV replicon EC50, genotype 1a (Renilla luciferase). Type of experiment: cell-based, hepatitis C virus. The settings on record: Hepatitis C virus, stable replicon genotype 1a, 72 h, read-out: EC50 1A RLUC. In short, it runs like this:
(§1)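 Compounds, three-fold diluted, were applied to Huh-7-derived cells harbouring luciferase replicons (genotype 1a H77, 1b Con1, 2a JFH-1, 4a ED43, with strain-specific adaptive mutations). Seventy-two hours later, intracellular replication was gauged by Renilla luciferase activity and EC50 derived by regression.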
In general terms: A replicon is a self-replicating genome or part of one, used to study replication in cells.

The test system of experiment [4] is genotype 1b (Con1) stable HCV replicon in Huh-7-derived cells. In words: Stable subgenomic HCV replicon EC50, genotype 1b (Renilla luciferase). The settings on record: Hepatitis C virus, stable replicon genotype 1b, 72 h, read-out: EC50 1B RLUC. The experiment is classed as cell-based, hepatitis C virus. The method, boiled down:
as §1

In experiment [5] the test system is genotype 2a (JFH-1) stable HCV replicon in Huh-7-derived cells. In words: Stable subgenomic HCV replicon EC50, genotype 2a (Renilla luciferase). Type of experiment: cell-based, hepatitis C virus. The conditions noted are these: Hepatitis C virus, stable replicon genotype 2a, 72 h, read-out: EC50 2A RLUC. The method, boiled down: as §1
Experiment [6] relates to genotype 3a (S52) stable HCV replicon in Huh-7-derived cells. Description: Stable subgenomic HCV replicon EC50, genotype 3a (Renilla luciferase). The experiment is classed as cell-based, hepatitis C virus. The conditions noted are these: Hepatitis C virus, 72 h, read-out: EC50 3A RLUC.
Experiment [7] concerns genotype 4a (ED43) stable HCV replicon in Huh-7-derived cells. In words: Stable subgenomic HCV replicon EC50, genotype 4a (Renilla luciferase). Type of experiment: cell-based, hepatitis C virus. The conditions noted are these: Hepatitis C virus, 72 h, read-out: EC50 4A RLUC. The method, boiled down: as §1
For experiment [8], the system named is genotype 3a (S52) wild type transient HCV replicon in Huh-7-derived cells. Description: Transient-transfected HCV replicon EC50, genotype 3a wild type. Type of experiment: cell-based, hepatitis C virus. The conditions noted are these: Hepatitis C virus; transient-transfected replicon genotype 3a wild type, 72 h; read-out: EC50 3A WT.
In experiment [9] the test system is genotype 1a (H77) wild type transient HCV replicon in Huh-7-derived cells. Description: Transient-transfected HCV replicon EC50, genotype 1a wild type. The experiment is classed as cell-based, hepatitis C virus. The settings on record: Hepatitis C virus, 72 h, transient-transfected replicon genotype 1a wild type, read-out: EC50 1A WT.
The subject of experiment [10] is genotype 1a NS3/4a protease inhibitor resistant variant R155K transient HCV replicon in Huh-7-derived cells. In words: Transient-transfected HCV replicon EC50, genotype 1a R155K. Type of experiment: cell-based, hepatitis C virus. The conditions noted are these: Hepatitis C virus, 72 h, read-out: EC50 1A R155K, transient-transfected replicon genotype 1a R155K resistant variant, 72 h.

Experiment [11] concerns genotype 1b (Con1) wild type transient HCV replicon in Huh-7-derived cells. Description: Transient-transfected HCV replicon EC50, genotype 1b wild type. Type of experiment: cell-based, hepatitis C virus. The settings on record: Hepatitis C virus, 72 h, transient-transfected replicon genotype 1b wild type, read-out: EC50 1B WT.
In experiment [12] the test system is genotype 1b NS3/4a protease inhibitor resistant variant D168A transient HCV replicon in Huh-7-derived cells. In words: Transient-transfected HCV replicon EC50, genotype 1b D168A. Type of experiment: cell-based, hepatitis C virus. The conditions noted are these: Hepatitis C virus, 72 h, read-out: EC50 1B D168A, transient-transfected replicon genotype 1b D168A resistant variant, 72 h.

Chain of HCV NS3 protease domain genotype 1b (Q9WMX2 1027-1208 E1202G): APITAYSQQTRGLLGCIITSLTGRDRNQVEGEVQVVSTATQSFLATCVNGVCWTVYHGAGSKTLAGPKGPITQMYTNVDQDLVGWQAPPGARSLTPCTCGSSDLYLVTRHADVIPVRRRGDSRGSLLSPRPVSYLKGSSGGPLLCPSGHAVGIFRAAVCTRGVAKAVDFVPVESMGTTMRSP
Chain of HCV NS3 protease domain genotype 3a (Q81258 whole entry, looked up, the tested form may be a part): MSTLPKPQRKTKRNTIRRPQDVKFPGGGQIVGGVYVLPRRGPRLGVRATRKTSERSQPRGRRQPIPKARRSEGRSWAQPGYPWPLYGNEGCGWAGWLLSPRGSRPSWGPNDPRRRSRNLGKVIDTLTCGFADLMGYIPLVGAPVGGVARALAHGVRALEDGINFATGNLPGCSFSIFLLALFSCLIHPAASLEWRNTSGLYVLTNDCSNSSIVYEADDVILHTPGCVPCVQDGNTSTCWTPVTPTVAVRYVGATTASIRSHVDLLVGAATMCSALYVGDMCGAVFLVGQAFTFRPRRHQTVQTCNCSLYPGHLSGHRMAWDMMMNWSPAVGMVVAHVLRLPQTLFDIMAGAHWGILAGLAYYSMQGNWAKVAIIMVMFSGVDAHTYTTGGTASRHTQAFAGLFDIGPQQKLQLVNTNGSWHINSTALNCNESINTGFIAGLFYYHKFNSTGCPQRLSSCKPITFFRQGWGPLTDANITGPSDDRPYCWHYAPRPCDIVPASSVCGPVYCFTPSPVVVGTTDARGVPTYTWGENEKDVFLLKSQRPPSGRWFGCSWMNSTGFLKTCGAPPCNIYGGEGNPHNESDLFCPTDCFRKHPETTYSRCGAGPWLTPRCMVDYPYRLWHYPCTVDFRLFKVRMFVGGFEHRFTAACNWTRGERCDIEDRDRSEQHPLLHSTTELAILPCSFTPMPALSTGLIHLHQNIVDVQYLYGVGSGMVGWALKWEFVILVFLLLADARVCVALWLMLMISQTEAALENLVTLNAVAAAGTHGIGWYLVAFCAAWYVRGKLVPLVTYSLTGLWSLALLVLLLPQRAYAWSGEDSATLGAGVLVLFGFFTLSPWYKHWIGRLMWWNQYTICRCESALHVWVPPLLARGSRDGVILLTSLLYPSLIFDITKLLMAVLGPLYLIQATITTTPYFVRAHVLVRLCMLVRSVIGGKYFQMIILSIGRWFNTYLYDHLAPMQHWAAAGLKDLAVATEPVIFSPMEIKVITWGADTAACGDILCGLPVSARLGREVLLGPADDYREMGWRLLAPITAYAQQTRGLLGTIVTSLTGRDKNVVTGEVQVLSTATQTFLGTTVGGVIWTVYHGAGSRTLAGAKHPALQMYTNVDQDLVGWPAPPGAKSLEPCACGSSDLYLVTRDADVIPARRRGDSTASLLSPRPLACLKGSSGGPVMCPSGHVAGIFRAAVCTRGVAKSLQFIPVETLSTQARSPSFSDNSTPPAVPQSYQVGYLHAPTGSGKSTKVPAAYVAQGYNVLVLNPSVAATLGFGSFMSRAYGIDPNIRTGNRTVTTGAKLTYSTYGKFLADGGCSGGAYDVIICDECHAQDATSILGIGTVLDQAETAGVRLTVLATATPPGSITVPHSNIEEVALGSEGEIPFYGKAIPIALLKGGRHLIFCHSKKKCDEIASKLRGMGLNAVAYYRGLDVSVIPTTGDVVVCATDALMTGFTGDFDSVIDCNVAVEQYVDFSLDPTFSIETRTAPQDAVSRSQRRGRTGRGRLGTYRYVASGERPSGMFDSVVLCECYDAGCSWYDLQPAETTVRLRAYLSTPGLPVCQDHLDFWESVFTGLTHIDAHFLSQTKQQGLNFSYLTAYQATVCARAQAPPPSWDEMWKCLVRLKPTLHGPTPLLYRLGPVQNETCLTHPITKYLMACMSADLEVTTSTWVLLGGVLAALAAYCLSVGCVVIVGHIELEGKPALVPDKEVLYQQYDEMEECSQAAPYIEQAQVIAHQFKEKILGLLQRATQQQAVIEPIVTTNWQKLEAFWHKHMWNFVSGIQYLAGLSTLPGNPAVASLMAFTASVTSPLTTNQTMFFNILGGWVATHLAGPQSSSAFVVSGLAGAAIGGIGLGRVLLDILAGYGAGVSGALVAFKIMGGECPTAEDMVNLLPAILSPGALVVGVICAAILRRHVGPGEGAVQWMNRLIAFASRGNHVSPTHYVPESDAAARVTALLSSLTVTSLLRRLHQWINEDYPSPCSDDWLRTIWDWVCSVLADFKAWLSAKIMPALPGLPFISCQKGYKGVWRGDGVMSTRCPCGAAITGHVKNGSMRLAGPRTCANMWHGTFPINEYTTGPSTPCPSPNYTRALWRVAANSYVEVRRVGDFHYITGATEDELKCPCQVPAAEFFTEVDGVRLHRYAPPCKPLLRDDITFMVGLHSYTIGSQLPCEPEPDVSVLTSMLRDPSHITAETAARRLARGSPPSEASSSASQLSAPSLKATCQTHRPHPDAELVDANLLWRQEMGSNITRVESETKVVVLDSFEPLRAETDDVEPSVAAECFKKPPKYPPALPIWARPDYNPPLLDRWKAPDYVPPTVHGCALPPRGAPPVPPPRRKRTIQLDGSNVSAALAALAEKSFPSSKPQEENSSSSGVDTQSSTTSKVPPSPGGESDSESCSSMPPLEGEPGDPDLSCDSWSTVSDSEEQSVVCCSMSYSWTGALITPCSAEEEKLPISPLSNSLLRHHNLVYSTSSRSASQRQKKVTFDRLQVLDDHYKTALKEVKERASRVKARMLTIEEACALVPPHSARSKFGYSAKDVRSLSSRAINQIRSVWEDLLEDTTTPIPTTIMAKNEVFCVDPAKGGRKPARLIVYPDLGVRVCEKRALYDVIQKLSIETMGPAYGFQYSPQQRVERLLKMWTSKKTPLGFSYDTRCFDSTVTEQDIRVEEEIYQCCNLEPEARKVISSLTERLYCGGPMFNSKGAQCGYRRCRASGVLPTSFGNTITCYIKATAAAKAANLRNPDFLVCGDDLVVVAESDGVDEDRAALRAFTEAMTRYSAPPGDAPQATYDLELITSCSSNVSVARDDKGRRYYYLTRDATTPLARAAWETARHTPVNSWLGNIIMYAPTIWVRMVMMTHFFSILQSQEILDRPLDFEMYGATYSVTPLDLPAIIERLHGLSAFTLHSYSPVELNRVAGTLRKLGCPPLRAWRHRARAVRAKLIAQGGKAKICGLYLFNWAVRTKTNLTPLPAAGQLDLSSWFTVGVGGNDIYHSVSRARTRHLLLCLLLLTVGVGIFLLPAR

The term Ki denotes the equilibrium dissociation constant of an inhibitor or competing ligand from its target. Low readings indicate higher affinity, high ones lower affinity. In general, EC50 refers to the concentration giving half of the maximal effect. Consider `CC[C@@H]1[C@@H]2CN(C(=O)[C@H](C(C)(C)C)NC(=O)O[C@@H]3C[C@H]3CCCCC(F)(F)c3nc4ccc(OC(F)(F)F)cc4nc3O2)[C@@H]1C(=O)N[C@]1(C(=O)NS(=O)(=O)C2(C)CC2)C[C@H]1C(F)F` [Example 83, (1aR,5S,8S,9S,10R,22aR)-5-tert-butyl-N-[(1R,2R)-2-(difluoromethyl)-1-{[(1-methylcyclopropyl)sulfonyl]carbamoyl}cyclopropyl]-9-ethyl-18,18-difluoro-3,6-dioxo-14-(trifluoromethoxy)-1,1a,3,4,5,6,9,10,18,19,20,21,22,22a-tetradecahydro-8H-7,10-methanocyclopropa[18,19][1,10,3,6]dioxadiazacyclononadecino[11,12-b]quinoxaline-8-carboxamide], for which the Ki in experiment [1] came to 0.09 nM; in [2] it was 0.48 nM. The concentration for a half-maximal effect (EC50) in [3] is 62 nM; in experiment [4], 58 nM; in experiment [5] it was 19 nM; in experiment [6], 1220 nM; in [7], 42 nM; in experiment [8], 300 nM. For the same molecule, the concentration for a half-maximal effect (EC50) in experiment [9] turned out to be 62 nM; in experiment [10], 133 nM; in experiment [11], 27 nM; in experiment [12], 202 nM.
Take `C[C@@H]1[C@@H]2CN(C(=O)[C@H](C(C)(C)C)NC(=O)O[C@@H]3C[C@@H]4C[C@@H]4[C@H]3CCCCCc3nc4ccc(F)cc4nc3O2)[C@@H]1C(=O)N[C@]1(C(=O)NS(=O)(=O)C2(C)CC2)C[C@H]1C(F)F` [Example 86, (1aS,2aR,6S,9S,10S,11R,23aR,23bS)-6-tert-butyl-N-[(1R,2R)-2-(difluoromethyl)-1-{[(1-methylcyclopropyl)sulfonyl]carbamoyl}cyclopropyl]-15-fluoro-10-methyl-4,7-dioxo-1a,2,2a,4,5,6,7,10,11,19,20,21,22,23,23a,23b-hexadecahydro-1H,9H-8,11-methanocyclopropa[4′,5′]cyclopenta[1′,2′:18,19][1,10,3,6]dioxadiazacyclononadecino[11,12-b]quinoxaline-9-carboxamide]: the figures for the Ki in [1] and in experiment [2] were 0.04 nM and 0.07 nM, respectively. In addition, the EC50 in experiment [3] stood at 5.6 nM; in experiment [4] it was 5.5 nM; in experiment [5] it was 5.9 nM; in experiment [6] it was 42 nM; in experiment [7] it was 5.7 nM; in experiment [8], 16 nM. Moreover, the EC50 worked out at 4 nM in [9], 3.7 nM in [10], 3.4 nM in [11] and 10 nM in experiment [12].
